Experimental findings from US12616753B2, “HSP70 inhibitors and methods of using same” (THE WISTAR INSTITUTE, priority 2020, dated 2026) are described below.

Where only a bound is given, the exact number is not on record here.

Series [1] relates to 1205LU melanoma xenografts. Nature of the series: 1205Lu melanoma xenograft in NSG mice. It counts as in vivo, mouse. The settings on record: i.p. twice per week. As to the method:
1205LU melanoma xenografts in NSG mice were established. When tumors reached 100 mm^3 in volume, mice were treated twice per week with the i.p. doses of AP-4-139B indicated.
AP-4-139B was tested as a single agent in a 1205Lu melanoma xenograph in mice. 1205LU melanoma xenografts in NSG mice were established. When tumors reached 100 mm^3 in volume, mice were treated twice per week with the i.p. doses of AP-4-139B indicated.

In the next series the test system is MC38 cells. Description: Cell death of MC38 cells pre-treated for vaccination (Trypan Blue staining). It counts as cell-based, mouse. The settings on record: 10 μM, 48 h. The method, then:
For in vivo metastasis assays, 8-10 week old male C57Bl/6 mice were injected with 4×10^5 MC38 cells. Mice were then treated with either vehicle or 10 mg/kg AP-4-139B every 48 hours for 3 weeks. At the end of the study, mice were euthanized, lungs were harvested and fixed in formalin for analysis of lung tumor nodules by H&E. For anti-tumor vaccination studies, MC38 cells were treated with 10 μM AP-4-139B for 48 h, resulting in approximately 20% cell death (as assessed by Trypan Blue staining). 2×10^6 pre-treated MC38 cells or PBS was inoculated subcutaneously into the left flank of 8-10 week old male C57BL/6 mice. Ten days later, mice were challenged on the right flank with 5×10^5 live MC38 cells, and tumor growth and incidence were monitored 3 times per week. The absence of tumors was scored as an indication for efficient antitumor vaccination.

In series [2] the test system is CRC cell lines (SW620, HT-29, HCT 116+/−p53, RKO, and LS411N). Nature of the series: Alamar Blue cell viability assay, human CRC panel. It is filed as cell-based. The settings on record: Homo sapiens; 72 hours; read-out: IC50, cytotoxicity in all CRC cell lines. As to the method:
FIGS. 4A-4F show AP-4-139B is efficacious as a single agent against human CRC in vitro and in vivo. FIG. 4A: Three CRC cell lines (HT-29, LS411N, and SW620) were treated with 10 μM of PET-16 or AP-4-139B for 48 hours. Cell were then subjected to viability assays using Trypan Blue exclusion. *** p<0.001. […] FIGS. 4B-4C: A panel of six CRC cell lines (SW620, HT-29, HCT 116+/−p53, RKO, and LS411N) were plated at a density of 1,000 cells per well in 96-well plates. The next day, cells were treated with the indicated inhibitors for 72 hours. Cells were then subjected to the Alamar Blue cell viability assays. Shown are representative IC50 values of an average of six technical replicates and two biological replicates. FIG. 4D: 2.5×10^6 HT-29 cells were injected subcutaneously into the right flank of NSG mice. Once tumors reached an approximate volume of 100 mm^3, mice were separated randomly into two groups: control vs. AP-4-139B. Mice were treated with 12.5 mg/kg AP-4-139B three times a week. All mice were euthanized 22 days after the start of treatment. Tumor volumes were recorded using digital calipers and using the formula v=length×width^2×0.52. *** p<0.001. n=10 mice per group. FIG. 4E: Immunohistochemistry (IHC) analysis of HT-29 xenograft tumors treated with AP-4-139B. Shown are representative images (4-6 random fields of view per condition) of Ki67 (proliferation) and Cleaved Lamin A (cell death). n=4 mice per group. Scale bar=100 μm. Respective IgG antibody was used as the negative control.
In general terms: Alamar Blue is a resazurin reagent that responds to reducing activity.

For a further series, the system named is MC38 and HT-29 cells. Nature of the series: Extracellular HMGB1 release. It counts as cell-based. Conditions: 8 or 24 hours. The method, then: FIG. 6A: 1×10^6 MC38 cells were injected subcutaneously into the right flank of 6-8-week-old male C57Bl/6 mice. Once tumors reached an approximate volume of 100 mm^3, mice were treated with AP-4-139B (10 mg/kg) every 48 hours. 20 days after the start of treatment, tumors were excised, weighed, minced and digested. Tumor-infiltrating and splenic conventional CD4 (cCD4) (Live CD45^+ DUMP^− CD3^+CD4^+Foxp3^−), Tregs (Live CD45^+ DUMP^− CD3^+CD4^+Foxp3^+), CD8 (Live CD45^+ DUMP^− CD3^+CD8^+) T-cells, and Dendritic Cells (Live CD45^+ DUMP^− CD3^−CD11c^+MHCII^+) numbers were assessed by flow cytometry. * p<0.05, n.s. not significant. n=8 mice per group. FIG. 6B: MC38 and HT-29 cells were treated with the indicated concentrations of AP-4-139B for either 8 or 24 hours; media was collected and subjected to WB for HMGB1. Data shown are representative of three technical replicates. FIG. 6C: MC38 and HT-29 cells were treated with the indicated concentrations of AP-4-139B for three hours and then assayed for extracellular ATP release. […]
The XF Cell Mito Stress Test was performed. […] For extracellular ATP release, ATP was measured using the CellTiter-Glo Kit (Promega catalog #G7570). […] 10 μl of CellTiter-Glo Reaction Mix was then mixed with 10 μl of culture media; the luminescence signal was detected using a luminometer.

Series [3] is described as follows: Half-life of PET-16 in plasma.

For `c1ccc(-c2cn3nc(CCCCCC[P+](c4ccccc4)(c4ccccc4)c4ccccc4)sc3n2)cc1` [AP-4-139B, Triphenyl(6-(6-phenylimidazo[2,1-b][1,3,4]thiadiazol-2-yl)hexyl)phosphonium bromide], in series [1], the “tumor growth, 1205Lu xenograft” value is “inhibit tumor growth” and the “tumor weight, 1205Lu xenograft” value was “reduce tumor weight”. Also, in the series with MC38 cells, the “cell death of MC38 cells” value is recorded as “approximately 20%”. In addition, the IC50 (commonly the concentration needed to halve the response being measured) in series [2] lay in the range of 1500 to 3000 nM. In addition, in the series on MC38 and HT-29 cells, the HMGB1 secretion entry is on record as “reproducibly induced HMGB1 secretion”.
As for `C(#C[P+](c1ccccc1)(c1ccccc1)c1ccccc1)c1ccccc1` [PET-16, Triphenyl(phenylethynyl)phosphonium bromide, reference compound], in series [3], the half-life (as a rule, how long it takes for the measured level to halve) was below 30 min.
